# According to US10688099B2, “Methods for modulating the amount of RNA transcripts” (PTC Therapeutics, Inc., priority 2013, dated 2020):
# Test system: RNA isoforms in PNN 1-46 SMA type I patient-derived fibroblasts
# Assay: RNA Abundance Modulation (RNA isoform abundance, iFPM, HiSeq RNA sequencing)
# Type: cell-based, human
# Conditions: 3 μM
# Method: Cells from a cell line of interest are cultured in conditions sufficient to yield the number of cells capable of generating enough RNA for subsequent sequencing steps. Cells from the tested cell line are contacted with a compound described herein.
# To culture said cells, they are seeded, at appropriate concentrations in a volume of media in a cell culture container and incubated for 4, 5, 6, 7, 8, 9, 10, or more hours. A concentrated solution of compound in a vehicle (e.g., DMSO) is then added in sufficient volume to result in the intended final concentration of the compound, for example 100 nM, 500 nM, 1 μM, 5 μM, 10 μM, 15 μM, 20 μM, or more. The cells may also be treated with vehicle alone, as a control. A number of replicates of each concentration or control may be made (e.g., 2 replicates). The cells are then incubated at a constant temperature appropriate for cell culture of the particular cell line (e.g., 37° C.) for 6, 12, 18, 24, 48, or more hours. After incubation, the growth medium is removed and the cells are washed with the appropriate buffer (e.g., PBS). Cells are then removed from adherence to the cell culture container by treatment with a solution containing trypsin, and the trypsin subsequently quenched with the appropriate volume of buffer (e.g., DMEM-FBS). The cells are then pelleted with gentle centrifugation (e.g., ≤90×g centrifugal force) and resuspended in a buffer to lyse the cells for extraction of RNA. The cell lysates may then be frozen (e.g., at −80° C.) or, alternately, may immediately be used in a procedure to purify the RNA (e.g. by use of the RNEASY PLUS® minikit). The RNA from cell lysates is eluted in the appropriate volume of buffer (e.g., RNEASE-FREE H2O®). The resulting purified RNA may then be sequenced (e.g., using RNASeq) or analyzed using a human exon array (e.g., by GENECHIP® human exon array) to determine changes in the RNA levels in those cells treated with compound compared to those cells treated only with DMSO. The purified RNA may also be quantified by other methods known in the art.
# Using the RNA data obtained from sequencing, exon array, or other methods, a statistical analysis can reveal changes in the RNA levels of compound-treated compared with control. For example, t-test p-values may be calculated for the data obtained through sequencing and exon array methods in order to compare compound-treated cells to those treated with the DMSO control. […] Analysis of the sequencing and exon array data may then also yield predictions about the cause of the aberrant amount of an RNA transcript in the cells (e.g., perturbation of RNA splicing, RNA transcription, or RNA stability). These predictions may be further confirmed by methods known in the art. For example, RT-PCR and RT-qPCR may be used to confirm the change in amount of RNA transcripts for one or more particular transcripts of interest.
# Following the methods described above in Example 1, PNN 1-46 SMA type I patient-derived fibroblasts were treated with 300 nM or 3 μM Compounds 774 and 808 in 0.5% DMSO.
# 700,000 cells were seeded in 10 mL of medium (DMEM plus 10% FBS) in a T-75 flask. Cells were allowed to attach for at least 4 hrs, after which 50 μL of a 200× compound solution (100% DMSO) was added to each well, and the plate was incubated at 37° C. for 24 hrs.
# At the end of the incubation period, the supernatant was removed and the cells where washed with PBS. TrypLE (Invitrogen) express solution was added (e.g. 1.5 mL per one T75 flask). The flasks were incubated for 3 to 5 min at 37° C. The trypsin was then quenched, e.g., by adding 10 mL DMEM-FBS.
# Next, the cells were pelleted using gentle centrifugation without exceeding 90×g centrifugal force. The supernatant was removed and the cell pellet was re-suspended in 600 μL RLT buffer (the RLT buffer was supplemented with beta-mercaptoethanol according to the RNeasy protocol manual) by pipetting up and down until the pellet was completely dissolved […]
compound,measurement,setting,value
CCc1nc(C)cn2nc(-c3cc(=O)n4cc(C5CCN(C)CC5)cc(C)c4n3)cc12 [Compound 774],L2FC (x + 1),UBE2V1 NM_022442,−1.807
same,L2abs (Cpd-DMSO),UBE2V1 NM_022442,1.32
same,abs (Cpd-DMSO),UBE2V1 NM_022442,2 iFPM
same,amp FC (x + 1),UBE2V1 NM_022442,3.50
same,ave Cpd,UBE2V1 NM_022442,0 iFPM
same,FC (x + 1),UBE2V1 NM_199144,9.0627
same,L2FC (x + 1),UBE2V1 NM_199144,3.180
same,L2abs (Cpd-DMSO),UBE2V1 NM_199144,3.01
same,abs (Cpd-DMSO),UBE2V1 NM_199144,8 iFPM
same,amp FC (x + 1),UBE2V1 NM_199144,9.06
same,ave Cpd,UBE2V1 NM_199144,8 iFPM
same,FC (x + 1),UBE2V1 NM_001032288,1.0807
same,L2FC (x + 1),UBE2V1 NM_001032288,0.112
same,L2abs (Cpd-DMSO),UBE2V1 NM_001032288,8.47
same,abs (Cpd-DMSO),UBE2V1 NM_001032288,355 iFPM
same,amp FC (x + 1),UBE2V1 NM_001032288,1.08
same,ave Cpd,UBE2V1 NM_001032288,4751 iFPM
same,FC (x + 1),UBE2V1 NM_001257393,0.0796
same,L2FC (x + 1),UBE2V1 NM_001257393,−3.651
same,L2abs (Cpd-DMSO),UBE2V1 NM_001257393,3.53
same,abs (Cpd-DMSO),UBE2V1 NM_001257393,12 iFPM
same,amp FC (x + 1),UBE2V1 NM_001257393,12.56
same,ave Cpd,UBE2V1 NM_001257393,0 iFPM
same,FC (x + 1),UBE2V1 NM_001257394,0.1697
same,L2FC (x + 1),UBE2V1 NM_001257394,−2.559
same,L2abs (Cpd-DMSO),UBE2V1 NM_001257394,4.01
same,abs (Cpd-DMSO),UBE2V1 NM_001257394,16 iFPM
same,amp FC (x + 1),UBE2V1 NM_001257394,5.89
same,ave Cpd,UBE2V1 NM_001257394,2 iFPM
same,FC (x + 1),UBE2V1 NM_001257397,0.5713
same,L2FC (x + 1),UBE2V1 NM_001257397,−0.808
same,L2abs (Cpd-DMSO),UBE2V1 NM_001257397,3.18
same,abs (Cpd-DMSO),UBE2V1 NM_001257397,9 iFPM
same,amp FC (x + 1),UBE2V1 NM_001257397,1.75
same,ave Cpd,UBE2V1 NM_001257397,11 iFPM
same,FC (x + 1),UBE2V1 NM_001257399,1.1595
same,L2FC (x + 1),UBE2V1 NM_001257399,0.214
same,L2abs (Cpd-DMSO),UBE2V1 NM_001257399,4.66
same,abs (Cpd-DMSO),UBE2V1 NM_001257399,25 iFPM
same,amp FC (x + 1),UBE2V1 NM_001257399,1.16
same,ave Cpd,UBE2V1 NM_001257399,182 iFPM
same,FC (x + 1),UBE2V1 NR_047554,0.0730
same,L2FC (x + 1),UBE2V1 NR_047554,−3.777
same,L2abs (Cpd-DMSO),UBE2V1 NR_047554,8.39
same,abs (Cpd-DMSO),UBE2V1 NR_047554,337 iFPM
same,amp FC (x + 1),UBE2V1 NR_047554,13.71
same,ave Cpd,UBE2V1 NR_047554,25 iFPM
same,FC (x + 1),UBE2V1 NR_047555,0.9261
same,L2FC (x + 1),UBE2V1 NR_047555,−0.111
same,L2abs (Cpd-DMSO),UBE2V1 NR_047555,−1.09
same,abs (Cpd-DMSO),UBE2V1 NR_047555,0 iFPM
same,amp FC (x + 1),UBE2V1 NR_047555,1.08
same,ave Cpd,UBE2V1 NR_047555,5 iFPM
same,FC (x + 1),UBE2V1 NR_047556,0.5268
same,L2FC (x + 1),UBE2V1 NR_047556,−0.925
same,L2abs (Cpd-DMSO),UBE2V1 NR_047556,3.88
same,abs (Cpd-DMSO),UBE2V1 NR_047556,15 iFPM
same,amp FC (x + 1),UBE2V1 NR_047556,1.90
same,ave Cpd,UBE2V1 NR_047556,15 iFPM
same,FC (x + 1),UCHL5 AK225794,0.7328
same,L2FC (x + 1),UCHL5 AK225794,−0.448
same,L2abs (Cpd-DMSO),UCHL5 AK225794,3.79
same,abs (Cpd-DMSO),UCHL5 AK225794,14 iFPM
same,amp FC (x + 1),UCHL5 AK225794,1.36
same,ave Cpd,UCHL5 AK225794,37 iFPM
same,FC (x + 1),UCHL5 AK316064,1.3941
same,L2FC (x + 1),UCHL5 AK316064,0.479
same,L2abs (Cpd-DMSO),UCHL5 AK316064,4.93
same,abs (Cpd-DMSO),UCHL5 AK316064,30 iFPM
same,ave Cpd,UCHL5 AK316064,106 iFPM
same,FC (x + 1),UCHL5 BC015381,1.2220
same,L2FC (x + 1),UCHL5 BC015381,0.289
same,L2abs (Cpd-DMSO),UCHL5 BC015381,1.34
same,abs (Cpd-DMSO),UCHL5 BC015381,3 iFPM
same,ave Cpd,UCHL5 BC015381,13 iFPM
